US8449788B2, “Leather finishing compositions comprising dioxolane derivatives” (Rhodia Poliamida e Especialidades Ltda, priority 2009, dated 2013)
Where two headings read alike, the source gives them in different places.

Legend:
[1] = cited from earlier work
[2] = cited from earlier work; remark: listed apart in the source
[3] = test system: mouse; settings: cited from earlier work
[4] = Solubilization of a dye-metal complex; type: physicochemical
Experimental: Solketal was tested to solubilize a dye-metal complex.

[5] = cited from earlier work; remark: listed apart in the source

CC1(C)OCC(CO)O1 (stereo not drawn) [Solketal, 2,2-dimethyl-1,3-dioxolane-4-methanol]
Solubility in water at 20° C. [1]: miscible
Reversion in slightly acid pH (biodegradability) [2]: may revert into acetone and glycerin
LD50 (oral/mouse mg/kg) [3]: 7000 mg/kg
Performance as solvent for dye-metal complex [4]: good compared to diacetone alcohol and methoxy propanol, and less effective compared to ethyldiglycol, ethylglycol, butyldiglycol and butylglycol
Performance as solvent for dye-metal complex ([4]; listed as solketal): average
Acute oral toxicity [5]: 7.00
